Holding throughout (format): in vivo, mice
The test system of assay [1] is malignant pleural mesothelioma (MPM) PDX model (FGFR1high; BAP1mut). As to the kind of experiment: Subcutaneous malignant pleural mesothelioma (MPM) PDX model (Example 20). The settings on record: Compound 73 100 mg/kg, Compound C 50 mg/kg, each orally every other day, 76 days; alone or combined. Here is the method:
(§1) A subcutaneous xenograft tumor model of human tumor immunodeficient mice was established by cell inoculation: tumor cells in logarithmic growth phase were collected, counted, resuspended in 1×PBS, and the cell suspension concentration was adjusted to 2.5-5×10^7/mL. The tumor cells were inoculated subcutaneously in the right side of immunodeficient mice with a 1 ml syringe ([…]), 5-10×10^6/0.2 mL/mouse. All animal experiments were strictly in accordance with the specifications for the use and management of experimental animals in GenePharma Co., Ltd. and Suzhou Ascentage Pharma Co., Ltd. The calculation of relevant parameters refers to the Chinese NMPA “Guidelines for Non-Clinical Research Techniques of Cytotoxic Anti-tumor Drugs”.
(§2) Animal body weight and tumor size were measured twice weekly during the experiment. The state of the animal and the presence or absence of death were observed every day. The growth of tumor and the effects of treatment on normal behavior of animals were monitored routinely, specifically involving experimental animal activity, feeding and drinking, weight gain or loss, eyes, clothing hair and other abnormalities. The deaths and clinical symptoms observed during the experiment were recorded in the raw data. All operations for administration and measurement of mouse body weight and tumor volume were performed in a clean bench. According to the requirements of the experimental protocol, after the end of the last administration, plasma and tumor tissues were collected, weighed and photographed. The plasma and tumor samples were frozen at −80° C. for ready-to-use.
(§3) Tumor volume (TV) is calculated as: TV=a×b^2/2, wherein a and b represent the length and width of the tumor to be measured, respectively.
The relative tumor volume (RTV) is calculated as: RTV=Vt/V1, wherein V1 is the tumor volume at the start of grouping and administration, and Vt is the tumor volume measured on the t day after administration. […]
Change of body weight (%)=(measured body weight-body weight at the start of grouping)/body weight at the start of grouping×100%. […]
(§4) According to the description by Clarke R., Issues in experimental design and endpoint analysis in the study of experimental cytotoxic agents in vivo in breast cancer and other models [J]. Breast Cancer Research & Treatment, 1997, 46(2-3): 255-278, synergy analysis was evaluated using the following formula: synergy factor=((A/C)×(B/C))/(AB/C); A=RTV value of drug A alone group; B=RTV value of drug B alone group; C=RTV value of the solvent control group, and AB=RTV value of the A and B combination group. […]

Assay [2] has as its system H226 (BAP1mut, UHRF1high, TP53WT, CDKN2Adel, FGFRhigh) subcutaneous mesothelioma xenograft. As to the kind of experiment: H226 subcutaneous mesothelioma xenograft model (Example 22). To be noted: for RTV @ D 39: mean ± SEM. As to the method:
as §1, §2, §3
(§5) The relative tumor volume (RTV) is calculated as: RTV=Vt/V1, wherein V1 is the tumor volume at the start of grouping and administration, and Vt is the tumor volume measured on the t day after administration.
(§6) The evaluation index of anti-tumor activity is the relative tumor proliferation rate T/C (%), and the calculation formula thereof is: relative tumor proliferation rate T/C (%)=(TRTV/CRTV)×100%, TRTV is the RTV of treatment group, CRTV is the RTV of solvent control group.
(§7) Change of body weight (%)=(measured body weight-body weight at the start of grouping)/body weight at the start of grouping×100%.
(§8) A dose of drug is considered to be severely toxic if the body weight of mouse is reduced by more than 20% or the number of drug-related deaths exceeds 20%.
In this experiment, H226 (BAP1mut, UHRF1high, TP53WT, CDKN2Adel, FGFRhigh) subcutaneous mesothelioma xenograft model was established to evaluate the anti-tumor effect of Compound 73 in combination with Compound C. The dosing regimen was as follows: • Compound C: 50 mg/kg, orally, every other day, for a total of 39 days; • Compound 73: 50 mg/kg, orally, once per day, for a total of 39 days; • Compound 73: 100 mg/kg, orally, once per day, for a total of 39 days.

Assay [3] relates to NCI-H28(X1) (BAP1mut, UHRF1high, TP53WT, CDKN2Adel, FGFRlow, NF2WT) subcutaneous mesothelioma xenograft. As to the kind of experiment: NCI-H28(X1) subcutaneous mesothelioma xenograft model (Example 23). To be noted: Compound C 50 mg/kg orally every other day, Compound 73 100 mg/kg orally once per day, 28 days, alone or combined. As to the method:
as §1, §2, §3, §5
The evaluation index of anti-tumor activity is the relative tumor proliferation rate T/C (%), and the calculation formula thereof is: relative tumor proliferation rate T/C (%)=(TRTV/CRTV)×100%, TRTV is the RTV of treatment group, CRTV is the RTV of solvent control group. […]
as §4

The subject of a further assay is 22RV1 prostate xenograft. As to the kind of experiment: Subcutaneous 22RV1 prostate xenograft model (Example 24). As to the method:
as §1, §2, §3, §5, §6, §7, §8
(§9) According to the description by Clarke R., Issues in experimental design and endpoint analysis in the study of experimental cytotoxic agents in vivo in breast cancer and other models [J]. Breast Cancer Research & Treatment, 1997, 46(2-3): 255-278, synergy analysis was evaluated using the following formula: synergy factor=((A/C)×(B/C))/(AB/C); A=RTV value of drug A alone group; B=RTV value of drug B alone group; C=RTV value of the solvent control group, and AB=RTV value of the A and B combination group.
In this experiment, subcutaneous 22RV1 prostate xenograft model was established to evaluate the anti-tumor effect of Compound 73 in combination with Compound C. The dosing regimen was as follows: • Compound C: 100 mg/kg, orally, every other day, for a total of 28 days; • Compound 73: 100 mg/kg, orally, once per day, for a total of 28 days;
(§10) The dosing regimen of each drug in the dosing regimen for the combination is the same as the dosing regimen for the single drug, for a total of 28 days.

A further assay concerns LnCap prostate xenograft. Kind of assay: Subcutaneous LnCap prostate xenograft model (Example 25). The settings on record: day 17. As to the method:
as §1, §2, §3, §5, §6, §8, §9
In this experiment, subcutaneous LnCap prostate xenograft model was established to evaluate the anti-tumor effect of Compound 73 in combination with Compound C. The dosing regimen was as follows: • Compound C: 100 mg/kg, orally, every other day, for day 1-day 9; 50 mg/kg, orally, every other day, for day 10-day 28; • Compound 73: 100 mg/kg, orally, once per day, for a total of 28 days;
as §10

The mark [4] stands for this setting: Compound 73 100 mg/kg orally once per day, alone or combined with Compound C 50 mg/kg every other day.
The mark [5] stands for this setting: Compound C 50 mg/kg orally every other day, Compound 73 50 mg/kg orally once per day, alone or combined.

In the case of `CC(C)N1Cc2cc(C(F)(F)F)ncc2-c2cnc(NCc3c(F)ccc4c3CCO4)n3cnc(c23)C1=O` [Compound 73, 12-(((5-fluoro-2,3-dihydrobenzofuran-4-yl)methyl)amino)-4-isopropyl-7-(trifluoromethyl)-4,5-dihydro-3H-2,4,8,11,12a-pentaazabenzo[4,5]cycloocta[1,2,3-cd]inden-3-one], the “RTV @ D 76” value in assay [1] turned out to be 3.06. In assay [1], the “T/C (%) @ D 76” value was 53%. Besides, the entries for the “T/C (%) @ D 39” value in assay [2] (setting [4]) and in assay [2] (setting [5]) were 59.73% and 67.7%, respectively. Moreover, the “RTV @ D 39” value in assay [2] (setting [4]) worked out at 4.76 ± 0.61; in assay [2] (setting [5]) it was 5.39 ± 0.56. The “antitumor activity (in words)” value in assay [2] (single agents, 39 days (FIG. 10)) is given as “moderate antitumor activity”. Also, the “T/C (%) @ D 29” value in assay [3] worked out at 33.06%. The “RTV@ D 29” value in assay [3] (mean ± SEM) is 5.05 ± 0.41; in the assay on 22RV1 prostate xenograft (22RV1 xenograft, day 29) it was 9.28 ± 0.61. Further, the “RTV@ D 26” value in the assay on 22RV1 prostate xenograft (22RV1 xenograft, day 26, Compound 73 100 mg/kg orally once per day, Compound C 50 mg/kg (table) orally every other day) is 7.91 ± 0.74. The “T/C(%) @ D 26” value in the assay with 22RV1 prostate xenograft (22RV1 xenograft, day 26, Compound 73 100 mg/kg, Compound C 50 mg/kg (table)) is reported as 49.89%. Moreover, the “RTV@ D 32” value in the assay with 22RV1 prostate xenograft (22RV1 xenograft, day 32) is reported as 11.53 ± 0.68. Also, the T/C value in the assay with 22RV1 prostate xenograft (day 26, Compound C 100 mg/kg orally every other day, Compound 73 100 mg/kg orally once per day, alone or combined) is given as 49.89%; with LnCap prostate xenograft (Compound C 100 mg/kg every other day day 1-9 then 50 mg/kg day 10-28, Compound 73 100 mg/kg once per day, orally, alone or combined), 91.30%. Moreover, the “RTV@ D 17” value in the assay on LnCap prostate xenograft (LnCap xenograft, Compound 73 100 mg/kg orally once per day, Compound C 100 mg/kg/50 mg/kg orally every other day) came to 4.09 ± 0.75. Moreover, in the assay with LnCap prostate xenograft (LnCap xenograft, Compound 73 100 mg/kg, Compound C 100 mg/kg/50 mg/kg), the “T/C(%) @ D 17” value is given as 91.30%.

The record behind these values is patent US20240316051A1, “A PHARMACEUTICAL COMBINATION AND USE THEREOF” (Ascentage Pharma (Suzhou) Co., Ltd., priority 2021, published 2024).
